The text below walks through data of US8933244B2, “Stabilized active halogen solutions” (Lonza Inc., priority 2009, dated 2015).

Series [1] can be described thus: Continuous flow mixing of stabilizer solution with sodium hypochlorite: temperature excursion and pH change. Type of series: physicochemical. The note with it: for ΔpH: 12.2% NaOCl (initial pH 12.6); for ΔT: 12.2% NaOCl. Here is the method:
For each data point, the combined flow rates of the stabilizer and hypochlorite solutions were adjusted in order to maintain the desired molar ratio of NaOCl to active ingredient (A.I.). The solution temperature was recorded before the onset of flow and after combination with the hypochlorite solution. In addition, the final pH of the resulting collected solution was recorded after a 2 min interval of continuous flow.
Stabilizer solutions of the present invention were prepared via dissolution of at least one substituted N-hydrogen compound (DMH=5,5-dimethylhydantoin and/or Amine=ethanolamine, morpholine) (i), and of at least one additional containing nitrogen compound (ii) in water with the pH adjusted to 7-9.5, if necessary. […]
Sodium hypochlorite solutions were used directly at high concentration (12.2%).
Consistent with known ammonia and urea chemistry (vide supra), mixing a halogen source and ammonium salt solutions at Cl2:N ratios greater than 1 (e.g., 2-4) usually results in substantial exothermic temperature excursions (ΔT, in Kelvin) and reductions in pH due to decomposition reactions that occur.

For series [2] the following is noted: high pH (12.4-13.4); Cl2:urea ratios of 1:1-2:1; WO 2007/089539 A2 / US 2007/0178173 A1; cited from earlier work.
Series [3] deals with Enterobacter aerogenes (ATCC 13048) and Pseudomonas aeruginosa (ATCC 15442). As to the kind of experiment: Biocidal efficacy in paper pulp slurry (modified ASTM E: 1839-07). Particulars: 2 ppm total Cl2, 3 h, 34° C., DMH 1.81 ppm alone. Type of series: cell-based. The procedure:
The conditions of the experiment were a modification of the method described in ASTM E: 1839-07. A 1% pulp slurry was prepared via shredding white laser printer paper and adding to an appropriate amount of 400 ppm alkalinity (as CaCO3) water solution. The slurry was rapidly mixed while heating to 98(±2) ° C., followed by cooling to room temperature. The pH was adjusted to 8.5 with 1N H2SO4 and the slurry was diluted to 0.5% with deionized water. A 98(±1) mL aliquot was transferred to a 125 mL sample flask and steam sterilized and cooled to room temperature prior to use.
Stock solutions of NaOCl at either 51,000 ppm or 400 ppm (as Cl2) were freshly prepared prior to the organism challenge test. Dilutions of the test samples were made in order to prepare a sample solution at the desired Cl2:Active Ingredient molar ratio and the flasks were dosed according to the target total Cl2 desired (2 ppm total Cl2).
Twenty four hour cultures of Enterobacter aerogenes (ATCC 13048) and Pseudomonas aeruginosa (ATCC 15442) were used for the testing. Microbiological counts were performed using tryptic soy agar (TSA) […] by known pour plate techniques. Final bacterial concentration of the inoculum was between 2×10^6 and 1×10^7 CFU/mL. 1 mL of the inoculum was then placed into each of the sample to be tested and the samples placed onto a shaker for 3 hours at 34° C. After the 3 hour contact time, DIFCO Dey-Engley (D/E) Neutralizing Broth was used as the first serial dilution tube for biocide neutralization and dilutions were plated through 10^6.

Setting [4] is: 5% active ingredients, Cl2:NH3 or Cl2:Urea 2.5.
Where [5] appears, read: 15% active ingredients, Cl2:NH3 or Cl2:Urea 8.
[6] abbreviates: 15% active ingredients, Cl2:NH3 or Cl2:Urea 2.
Where [7] appears, read: 15% active ingredients, Cl2:NH3 or Cl2:Urea 4.
[8] abbreviates: 17% active ingredients, Cl2:NH3 or Cl2:Urea 4.

As to `NC(N)=O` [Urea, urea], in series [1] (setting [4]), the ΔpH is recorded as −0.5 and the ΔT is on record as 18 K. For the same molecule, in series [1] (setting [5]), the ΔpH is −0.7 and the ΔT came out at 36 K. Besides, in series [2], the total halogen yield was 48-69%.
With `Br.N` [NH4Br, ammonium bromide], the ΔpH in series [1] (setting [6]) is on record as −9.5; in series [1] (setting [7]), −5.3; in series [1] (setting [8]), −5.3. Further, the values for the ΔT in series [1] (setting [6]), in series [1] (setting [7]) and in series [1] (setting [8]) were 37 K, 31 K and 34 K, respectively.
In the case of `CC1(C)NC(=O)NC1=O` [DMH, 5,5-dimethylhydantoin], the “Efficacy (Δlg)” value is recorded as 0.1 Δlg in series [3] (box paper pulp slurry), 3.2 Δlg in series [3] (fine paper pulp slurry (Table 3 series)) and 2.9 Δlg in series [3] (fine paper pulp slurry (Table 4 series)).
